Patent US20190110476A1, “NOVEL ISOTHIAZOLAMIDES, PROCESSES FOR THEIR PREPARATION AND THEIR USE AS FUNGICIDES” (priority 2014, published 2019)
Marks after values point to notes of the source that are not given here.

Test: Measurement of LogP values by HPLC on reversed phase columns (EEC directive 79/831 Annex V.A8)
Format: physicochemical
Summary of the method: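 Following EEC directive 79/831 Annex V.A8, lipophilicity was derived from retention on reversed-phase HPLC columns. Separate values are given per diastereoisomer, and UV lambda-max (200–400 nm) was read at the peak signals.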

| SMILES | LogP |
| --- | --- |
| O=C(NCc1ccc(Cl)cc1)c1cc(N(Cc2ccccc2)Cc2ccccc2)ns1 [I-314] | 4.85[a] |
| CC(NC(=O)c1snc(N(Cc2ccccc2)Cc2ccccc2)c1-c1ccc(F)cc1)C1CCCCC1 (centres unmarked) [I-317] | 6.63[a] |
| O=C(NCC1CCCCC1)c1snc(N(Cc2ccccc2)Cc2ccccc2)c1-c1ccc(F)cc1 [I-318] | 6.27[a] |
| O=C(NC1CCCCC1)c1snc(N(Cc2ccccc2)Cc2ccccc2)c1-c1ccc(F)cc1 [I-319] | 5.98[a] |
| O=C(NCc1ccccc1F)c1snc(N(Cc2ccccc2)Cc2ccccc2)c1-c1ccc(F)cc1 [I-320] | 5.45[a] |
| O=C(NCc1ccc(Cl)cc1)c1snc(N(Cc2ccccc2)Cc2ccccc2)c1-c1ccc(F)cc1 [I-321] | 5.72[a] |
| O=C(NCc1ccc(F)cc1F)c1cc(N(Cc2ccccc2)Cc2ccccc2)ns1 [I-322] | 4.45[a] |
| O=C(NCc1ccc(Cl)cc1Cl)c1cc(N(Cc2ccccc2)Cc2ccccc2)ns1 [I-323] | 5.17[a] |
| Nc1nsc(C(=O)NCc2ccc(F)cc2C(F)(F)F)c1Cl [I-324] | 2.61[a] |
| COc1cccc(CNC(=O)c2snc(N)c2Cl)c1F [I-325] | 1.91[a] |
| Cc1ccc(C)c(CNC(=O)c2snc(N)c2Cl)c1 [I-326] | 2.50[a] |
| Nc1nsc(C(=O)NCc2cc(Cl)ccc2C(F)(F)F)c1Cl [I-327] | 2.88[a] |
| Cc1cc(C)c(CNC(=O)c2snc(N)c2Cl)cc1C [I-328] | 2.78[a] |
| Cc1ccc(C(C)(C)C)c(CNC(=O)c2snc(N)c2Cl)c1 [I-329] | 3.46[a] |
| Nc1nsc(C(=O)NCC2CCCCC2)c1-c1ccc(F)cc1 [I-332] | 2.96[a] |
| C[C@H](NC(=O)c1snc(N)c1-c1ccc(F)cc1)C1CCCCC1 [I-333] | 3.29[a] |
| Nc1nsc(C(=O)NC2CCCCC2)c1-c1ccc(F)cc1 [I-334] | 2.66[a] |
| Nc1nsc(C(=O)NCc2ccccc2F)c1-c1ccc(F)cc1 [I-335] | 2.43[a] |
| Nc1nsc(C(=O)NCc2ccc(Cl)cc2)c1-c1ccc(F)cc1 [I-336] | 2.73[a] |
| Nc1nsc(C(=O)NCC2CC2)c1Cl [I-337] | 1.30[a] |
| Cc1cc(CNC(=O)c2snc(N)c2Cl)ccc1F [I-349] | 2.28[a] |
| COc1ccc(CNc2nsc(C(=O)NCc3ccc(F)c(C)c3)c2Cl)cc1 [I-350] | 3.89[a] |
| Nc1nsc(C(=O)NCc2ccc(Cl)cc2)c1C1CC1 [I-358] | 2.21[a] |
| Nc1nsc(C(=O)NCC2CCCCC2)c1C1CC1 [I-359] | 2.37[a] |
| Nc1nsc(C(=O)NC2CCCCC2)c1C1CC1 [I-360] | 2.00[a] |
| Nc1nsc(C(=O)NCc2ccccc2F)c1C1CC1 [I-361] | 1.88[a] |

| SMILES | LogP |
| --- | --- |
| Nc1nsc(C(=O)N(Cc2cc(F)ccc2F)C2CC2)c1Cl [I-362] | 2.57[a] |
| Cc1ccc(F)c(CN(C(=O)c2snc(N)c2Cl)C2CC2)c1 [I-363] | 2.80[a] |
| Nc1nsc(C(=O)N(Cc2cc(Cl)ccc2F)C2CC2)c1Cl [I-364] | 2.86[a] |
| Nc1nsc(C(=O)N(Cc2cc(Cl)ccc2Br)C2CC2)c1Cl [I-365] | 3.29[a] |
| COc1ccc(CNc2nsc(C(=O)NCc3ccc(Br)cc3)c2Cl)cc1 [I-366] | 4.01[a] |
| Nc1nsc(C(=O)NCc2ccc(Br)cc2)c1Cl [I-372] | 2.39[a] |
| COc1ccc(CNc2nsc(C(=O)NCc3ccc(Cl)cc3C)c2Cl)cc1 [I-376] | 4.20[a] |
| Cc1cc(Cl)ccc1CNC(=O)c1snc(N)c1Cl [I-389] | 2.60[a] |
| COc1ccc(CNc2nsc(C(=O)NCc3ccc(Cl)c(OC)c3)c2Cl)cc1 [I-390] | 3.76[a] |
| COc1ccc(CNc2nsc(C(=O)NCc3cc(C)ccc3C3(C)CC3)c2Cl)cc1 [I-391] | 4.92[a] |
| COc1ccc(CNc2nsc(C(=O)NCc3cc(C)ccc3C(C)C)c2Cl)cc1 [I-392] | 4.80[a] |
| COc1ccc(CNc2nsc(C(=O)NCc3cc(Cl)ccc3Cl)c2Cl)cc1 [I-393] | 4.34[a] |
| O=C(NCC1CCCCC1)c1snc(N(Cc2ccccc2)Cc2ccccc2)c1C(F)F [I-394] | 5.88[a] |
| O=C(NCc1ccc(F)cc1F)c1cc(NC(=O)C(F)(F)F)ns1 [I-398] | 2.58[a] |
| Cc1ccc(C2(C)CC2)c(CNC(=O)c2snc(N)c2Cl)c1 [I-414] | 3.29[a] |
| Cc1ccc(C(C)C)c(CNC(=O)c2snc(N)c2Cl)c1 [I-415] | 3.15[a] |
| Nc1nsc(C(=O)NCc2cc(Cl)ccc2Cl)c1Cl [I-416] | 2.71[a] |
| Nc1nsc(C(=O)NCC2CCCCC2)c1C(F)F [I-417] | 2.66[a] |
| C[C@H](NC(=S)c1snc(N)c1Cl)C1CCCCC1 [I-418] | 3.85[a] |
| COc1ccc(CNc2nsc(C(=O)NCc3ccc(F)c(OC)c3F)c2Cl)cc1 [I-426] | 3.69[a] |
| C[C@H](NC(=O)c1snc(NCC(F)(F)F)c1Cl)C1CCCCC1 [I-427] | 4.11[a] |
| C[C@H](NC(=S)c1snc(NC2CC2)c1Cl)C1CCCCC1 [I-428] | 4.84[a] |
| C[C@H](NC(=S)c1snc(NCC(F)(F)F)c1Cl)C1CCCCC1 [I-429] | 5.14[a] |
| O=CNc1cc(C(=O)NCc2ccc(F)cc2F)sn1 [I-430] | 1.79[a] |
| CCCCC(=O)Nc1nsc(C(=O)NCC2CCCCC2)c1Cl [I-450] | 3.20[c] |
| COc1c(F)ccc(CNC(=O)c2snc(N)c2Cl)c1F [I-464] | 2.12[a] |

| SMILES | LogP |
| --- | --- |
| COc1cccc(CNC(=O)c2snc(N)c2Cl)c1Cl [I-465] | 2.23[a] |
| O=CNc1nsc(C(=O)NCc2ccc(F)cc2F)c1Cl [I-467] | 1.89[a] |
| C[C@H](NC(=O)c1snc(NC(=O)C(F)F)c1Cl)C1CCCCC1 [I-522] | 3.06[a] |
| Nc1nsc(C(=O)NCC2CCCCC2)c1Br [I-539] | 2.51[a] |
| O=C(NCC1CCCCC1)c1cc(N(Cc2ccccc2)Cc2ccccc2)ns1 [I-540] | 5.22[a] |
| O=C(NCC1CCCCC1)c1snc(N(Cc2ccccc2)Cc2ccccc2)c1Br [I-541] | 6.25[a] |
| CON(Cc1ccc(F)cc1F)C(=O)c1snc(N)c1Cl [I-542] | 2.50[a] |
| CON(CC1CCCCC1)C(=O)c1snc(N)c1Cl [I-543] | 3.04[a] |
| O=C(Nc1nsc(C(=O)NCc2ccc(Cl)cc2)c1Cl)c1ccccc1 [I-569] | 2.97[a] |
| CC(=O)Nc1nsc(C(=O)NCc2ccc(Cl)cc2)c1Cl [I-570] | 2.03[a] |
| CC(=O)N(C(C)=O)c1nsc(C(=O)NCc2ccc(Cl)cc2)c1Cl [I-571] | 2.99[a] |
| COc1ccc(CNc2nsc(C(=O)NC3CC4CCC3(C)C4(C)C)c2Cl)cc1 (centres unmarked) [I-572] | 5.02[a]; |
| O=C(NCc1ccc(Cl)cc1)c1snc(NC(=O)C(F)F)c1Cl [I-574] | 2.51[a] |
| O=C(NCc1ccc(Cl)cc1)c1snc(NCC(F)(F)F)c1Cl [I-578] | 3.44[a] |
| COC(=O)Nc1nsc(C(=O)NCc2ccc(Cl)cc2)c1Cl [I-579] | 2.29[a] |
| O=C(NCc1ccc(Cl)cc1)c1snc(NC2CC2)c1Cl [I-580] | 3.07[a] |
| C#CCNc1nsc(C(=O)NCc2ccc(Cl)cc2)c1Cl [I-581] | 2.97[a] |
| O=C(NCc1ccc(Cl)cc1)c1snc(N(C(=O)c2ccccc2)C(=O)c2ccccc2)c1Cl [I-582] | 4.39[a] |
| Cc1c(N)nsc1C(=O)NCc1c(F)cc(F)cc1F [I-583] | 1.69[a] |
| Cc1c(N)nsc1C(=O)NCc1cc(F)c(F)c(F)c1 [I-584] | 1.92[a] |
| Cc1c(N)nsc1C(=O)NCc1cc(F)cc(F)c1F [I-585] | 1.82[a] |
| Cc1c(N)nsc1C(=O)NCc1c(F)cccc1Cl [I-587] | 1.61[a] |
| Cc1c(N)nsc1C(=O)NCc1cc(F)c(F)cc1F [I-588] | 1.64[a] |
| Cc1c(N)nsc1C(=O)NCc1c(F)ccc(F)c1F [I-596] | 1.49[a] |
| Cc1c(N)nsc1C(=O)NCc1ccc(F)c(F)c1F [I-597] | 1.68[a] |
| COc1ccc(CNc2nsc(C(=O)NCc3ccc(C4CC4)cc3)c2C2CC2)cc1 [I-600] | 3.94[a] |

| SMILES | LogP |
| --- | --- |
| CCC(=O)Nc1nsc(C(=O)NC(C)C2CCCCC2)c1Cl (centres unmarked) [I-601] | 2.82[a] |
| Nc1nsc(C(=O)NCc2ccc(C3CC3)cc2)c1C1CC1 [I-606] | 2.48[a] |
| CN1C2CCC1CC(NC(=O)c1snc(N)c1Cl)C2 (centres unmarked) [I-607] | −0.20[c] |
| C#Cc1c(NC(=O)C(F)(F)F)nsc1C(=O)NCC1CCCCC1 [I-609] | 3.05[a] |
| Nc1nsc(C(=O)NCC2(F)CCCCC2)c1Cl [I-615] | 2.17[a] |
| Nc1nsc(C(=O)NCC2CCCCC2)c1C#CCO [I-618] | 1.90[c] |
| Nc1nsc(C(=O)NC2CCCC3CCCCC32)c1Cl (centres unmarked) [I-621] | 3.39[a] |
| Nc1nsc(C(=O)NC2CCCC3CCCCC32)c1Cl (centres unmarked) [I-622] | 3.48[a] |
| O=C(NC1CCCC2CCCCC21)c1snc(NCC(F)(F)F)c1NCC(F)(F)F (centres unmarked) [I-631] | 4.82[a] |
| Nc1nsc(C(=O)NCC2CCC(O)C2)c1Cl (centres unmarked) [I-658] | 0.72[a] |
| COc1ccc(CNc2nsc(C(=O)NCc3ccc(C)o3)c2Cl)cc1 [I-674] | 3.27[a] |
| COc1ccc(CNc2nsc(C(=O)NCC3CCC(C)CC3)c2Cl)cc1 (centres unmarked) [I-675] | 4.56[a] |
| O=C(NCC1CCCCC1)c1snc(NCCCO)c1Cl [I-676] | 2.46[a] |
| Nc1nsc(C(=O)NCc2cc(F)c(F)cc2F)c1Cl [I-677] | 2.03[a] |
| O=CCCNc1nsc(C(=O)NCC2CCCCC2)c1Cl [I-715] | 2.83[a] |
| Nc1nsc(C(=O)NCc2cccc(I)c2)c1Cl [I-716] | 2.51[a] |
| O=C(O)CCNc1nsc(C(=O)NCC2CCCCC2)c1Cl [I-721] | 2.42[a] |
| CCOc1c(N)nsc1C(=O)NCc1c(F)cc(F)cc1F [I-724] | 2.09[a] |
| CCOc1c(N)nsc1C(=O)NCC1CCCC1 [I-725] | 2.18[a] |
| CCOc1c(N)nsc1C(=O)NCC1(O)CCCCC1 [I-726] | 1.55[a] |
| CCOc1c(N)nsc1C(=O)NC1CCCCC1 [I-727] | 2.14[a] |
| CCOc1c(N)nsc1C(=O)NCC1CCCCCC1 [I-728] | 2.83[a] |
| CCOc1c(N)nsc1C(=O)NCC1CCCCO1 (centres unmarked) [I-729] | 1.66[a] |
